For one test, the system named is BJ fibroblast cells. Description: Cytokine screen in BJ fibroblast cells, human CCL-5/RANTES ELISA. Format: cell-based. Conditions: BJ fibroblasts, 500 ng modRNA, 18 h to 22 h. As to the method:
At 2 or 3 days prior to transfection, 100,000 BJ fibroblast cells (ATCC no. CRL-2522; Manassas, Va.) were harvested by treatment with trypsin-EDTA solution (LifeTechnologies, Grand Island, N.Y.) and seeded in a total volume of 500 ul EMEM medium (supplemented with 10% FCS and 10% Glutamax, both LifeTechnologies, Grand Island, N.Y.) per well in 24-well cell culture plates (Corning, Manassas, Va.). The cells were grown at 37° C. in a 5% CO2 atmosphere overnight. On the next day, 500 ng modRNA, harboring chemical modifications on the bases or the ribose units, were diluted in 25 ul final volume of OPTI-MEM (LifeTechnologies, Grand Island, N.Y.). Lipofectamine 2000 (LifeTechnologies, Grand Island, N.Y.) was used as transfection reagent and 1.0 ul was diluted in 25 ul final volume of OPTI-MEM. After 5 min incubation at room temperature, both solutions were combined and incubated an additional 15 min at room temperature. The 50 ul were added to the 500 ul cell culture medium containing the BJ fibroblast cells. The plates were then incubated as described above.
After 18 h to 22 h incubation, cell culture supernatants were collected and centrifuged at 10,000 rcf for 2 min. The cleared supernatants were transferred and analyzed with a human IFN-beta ELISA (R&D Systems, Minneapolis, Minn.; Cat. #s 41410-2) and human CCL-5/RANTES ELISA (R&D Systems, Minneapolis, Minn.; Cat. #s SRN00B) according to the manufacturer instructions. All samples were diluted until the determined values were within the linear range of the ELISA standard curves using a BioTek Synergy H1 plate reader (BioTek, Winooski, Vt.).
On the technique in general: An ELISA detects its analyte on a solid surface through an enzyme-linked reagent.

For the next test, the target named is T7 RNA polymerase (Escherichia phage T7, UniProt P00573). Description: In vitro transcription yields of modified mRNA. The test is classed as biochemical. Conditions: for EPO In Vitro Transcription yield: EPO mRNA made with the modified NTP(s); for GCSF In Vitro Transcription yield: GCSF mRNA made with the modified NTP(s); for Luc In Vitro Transcription yield: Luciferase mRNA made with the modified NTP(s). The procedure: The in vitro transcription reaction generates mRNA containing modified nucleotides or modified RNA. The input nucleotide triphosphate (NTP) mix is made in-house using natural and unnatural NTPs.
Chain of T7 RNA polymerase (P00573 whole entry): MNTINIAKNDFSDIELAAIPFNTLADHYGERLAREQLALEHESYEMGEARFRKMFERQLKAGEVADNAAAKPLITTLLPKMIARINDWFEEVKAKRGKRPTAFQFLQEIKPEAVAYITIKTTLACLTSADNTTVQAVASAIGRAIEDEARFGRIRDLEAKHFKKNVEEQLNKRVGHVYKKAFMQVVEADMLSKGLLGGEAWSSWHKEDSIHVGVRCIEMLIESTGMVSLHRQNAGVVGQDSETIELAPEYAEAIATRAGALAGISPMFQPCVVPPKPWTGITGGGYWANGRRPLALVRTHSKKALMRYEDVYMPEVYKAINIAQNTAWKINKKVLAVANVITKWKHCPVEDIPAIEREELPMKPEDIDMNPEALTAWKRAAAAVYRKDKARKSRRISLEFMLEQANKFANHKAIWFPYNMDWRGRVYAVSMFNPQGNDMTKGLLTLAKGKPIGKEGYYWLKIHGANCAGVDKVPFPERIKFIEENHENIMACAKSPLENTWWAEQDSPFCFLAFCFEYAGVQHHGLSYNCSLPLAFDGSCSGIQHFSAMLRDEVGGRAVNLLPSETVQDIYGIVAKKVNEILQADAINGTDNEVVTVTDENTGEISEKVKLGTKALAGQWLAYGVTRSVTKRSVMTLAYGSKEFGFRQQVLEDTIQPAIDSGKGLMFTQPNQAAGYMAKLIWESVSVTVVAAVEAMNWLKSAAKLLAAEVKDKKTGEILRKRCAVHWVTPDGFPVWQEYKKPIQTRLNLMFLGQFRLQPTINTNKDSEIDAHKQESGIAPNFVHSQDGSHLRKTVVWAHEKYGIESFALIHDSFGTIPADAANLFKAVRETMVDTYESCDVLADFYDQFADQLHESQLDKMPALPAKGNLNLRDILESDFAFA
A typical in vitro transcription reaction includes the following:
Incubation at 37° C. for 3 hr-5 hrs.
The crude IVT mix may be stored at 4° C. overnight for cleanup the next day. 1 U of RNase-free DNase is then used to digest the original template. After 15 minutes of incubation at 37° C., the mRNA is purified using Ambion's […]™ Kit (Austin, Tex.) following the manufacturer's instructions. This kit can purify up to 500 μg of RNA. Following the cleanup, the RNA is quantified using the NanoDrop and analyzed by agarose gel electrophoresis to confirm the RNA is the proper size and that no degradation of the RNA has occurred.
Modified mRNAs in TE buffer (1 μl) are used for Nanodrop UV absorbance readings to quantitate the yield of each modified mRNA from an in vitro transcription reaction (UV absorbance traces are not shown).

The next test has as its system human PBMC. Description: PBMC cytokine assay, interferon-alpha production (IFN-alpha multi-subtype ELISA). Format: cell-based. The procedure:
50 mL of human blood from three donors was received from Research Blood Components (Brighton, Mass.) in sodium heparin tubes. […] The tubes were centrifuged at 2000 rpm for 30 minutes with low acceleration and braking (Thermo, Waltham, Mass., 75004506). The tubes were removed and the buffy coat PBMC layers were gently transferred to a fresh 50 mL conical and washed with DPBS. The tubes were centrifuged at 1450 rpm for 10 minutes. The supernatant was aspirated and the PBMC pellets were resuspended and washed in 50 mL of DPBS. The tubes were centrifuged at 1450 rpm for 10 minutes. […] The cell suspensions were adjusted to a concentration of 3.0×10^6 cells/mL live cells. […] Within 30 minutes, transfection mixtures were added to each well at a volume of 50 μL per well. […] The transfection mixtures were then transferred to each of the human PBMC plates at 50 μL per well (6 wells per mRNA sample). The plates were then incubated at 37° C. […] In order to harvest the supernatant, plates were centrifuged at 1450 rpm for 5 min in a swinging plate rotor. The supernatant of 6 wells transfected with the same mRNA was carefully harvested and pooled in a single well of a fresh 96-well plate. Supernatants were either frozen or used fresh until ELISA analysis was done. The ability of unmodified and modified mRNA to trigger innate immune recognition as measured by interferon-alpha production.

Results on 19 compounds are retold here after patent US20160304552A1, “MODIFIED NUCLEIC ACID MOLECULES AND USES THEREOF” (MODERNA THERAPEUTICS, INC., priority 2013, published 2016).

For “1-methyl-pseudouridine TP, ATP, GTP, CTP”, in the test with BJ fibroblast cells, the “Luc mRNA RANTES” value came out at 5473 pg/mL, the “hEpo mRNA RANTES” value was 8780 pg/mL and the “hGCSF mRNA RANTES” value was 4816 pg/mL.

For the compound 2-thio-pseudouridine TP, ATP, GTP, CTP, in the test on BJ fibroblast cells, the “Luc mRNA RANTES” value amounted to 1706 pg/mL, the “hEpo mRNA RANTES” value came to 5440 pg/mL and the “hGCSF mRNA RANTES” value turned out to be 2106 pg/mL.

As for 5-bromocytidine TP, ATP, GTP, UTP, in the test with BJ fibroblast cells, the “Luc mRNA RANTES” value was found to be 1380 pg/mL, the “hEpo mRNA RANTES” value amounted to 1343 pg/mL and the “hGCSF mRNA RANTES” value worked out at 1900 pg/mL.

On to “5-hydroxymethyl-cytidine TP, ATP, GTP, UTP”, for which, in the test with BJ fibroblast cells, the “Luc mRNA RANTES” value amounted to 9826 pg/mL, the “hEpo mRNA RANTES” value worked out at 2160 pg/mL and the “hGCSF mRNA RANTES” value came to 9063 pg/mL.

For 5-methoxy-uridine TP, ATP, GTP, UTP, in the test with BJ fibroblast cells, the “Luc mRNA RANTES” value came to 33.33 pg/mL, the “hEpo mRNA RANTES” value is -6.66 pg/mL and the “hGCSF mRNA RANTES” value was -6.66 pg/mL.

With “5-trifluromethylcytidine TP, ATP, GTP, UTP”, in the test on BJ fibroblast cells, the “Luc mRNA RANTES” value turned out to be 2303 pg/mL, the “hEpo mRNA RANTES” value is 7593 pg/mL and the “hGCSF mRNA RANTES” value was 4203 pg/mL.

Take `Nc1ncnc2c1nnn2[C@@H]1O[C@H](COP(=O)(O)OP(=O)(O)OP(=O)(O)O)C(O)C1O` (stereo partly drawn) [00901011003 (377), 8-Aza-ATP]: at T7 RNA polymerase, the “EPO In Vitro Transcription yield” value is on record as 0.0055 mg, the “GCSF In Vitro Transcription yield” value came out at 0.03 mg and the “Luc In Vitro Transcription yield” value is 0.0262 mg.

With `O=c1[nH]c(=O)n([C@@H]2O[C@H](COP(=O)(O)OP(=O)(O)OP(=O)(O)O)C(O)C2O)cc1C(F)(F)F` (stereo partly drawn) [00901013002 (352), 5-Trifluoromethyl-UTP], at T7 RNA polymerase, the “EPO In Vitro Transcription yield” value is recorded as 0.3830 mg, the “GCSF In Vitro Transcription yield” value came out at 0.5102 mg and the “Luc In Vitro Transcription yield” value is on record as 0.3662 mg.

Consider `CNCc1cn([C@@H]2O[C@H](COP(=O)(O)OP(=O)(O)OP(=O)(O)O)C(O)C2O)c(=O)[nH]c1=O` (stereo partly drawn) [00901013006 (353), 5-Methylamino methyl-UTP], for which, at T7 RNA polymerase, the “EPO In Vitro Transcription yield” value is given as 0.3060 mg, the “GCSF In Vitro Transcription yield” value is given as 0.3494 mg and the “Luc In Vitro Transcription yield” value was 0.2914 mg.

Take `O=c1[nH]c(=S)ccn1[C@@H]1O[C@H](COP(=O)(O)OP(=O)(O)OP(=O)(O)O)C(O)C1O` (stereo partly drawn) [00901013011 (2), 4-Thio-UTP]: at T7 RNA polymerase, the “EPO In Vitro Transcription yield” value is recorded as 0.0416 mg, the “GCSF In Vitro Transcription yield” value was 0.0759 mg and the “Luc In Vitro Transcription yield” value came out at 0.1625 mg.

On to `Cn1c(=O)[nH]cc([C@@H]2O[C@H](COP(=O)(O)OP(=O)(O)OP(=O)(O)O)C(O)C2O)c1=O` (stereo partly drawn) [00901015187 (236), 3-Methyl-pseudo-UTP], for which, on T7 RNA polymerase, the “EPO In Vitro Transcription yield” value was determined as 0.0125 mg, the “GCSF In Vitro Transcription yield” value is recorded as 0.0120 mg and the “Luc In Vitro Transcription yield” value was found to be 0.0152 mg.

As to `Nc1nc(=O)n([C@@H]2O[C@H](COP(=O)(O)OP(=O)(O)OP(=O)(O)O)C(O)C2O)cc1C(F)(F)F` (stereo partly drawn) [00901016002 (351), 5-Trifluoromethyl-CTP], the “interferon-alpha concentration in PBMC supernatant” value in the test with human PBMC (Luc mRNA, 1st value in cell) came to 6670 pg/mL; in the test on human PBMC (Luc mRNA, 2nd value in cell), 2190 pg/mL; with human PBMC (Luc mRNA, 3rd value in cell), 6410 pg/mL; with human PBMC (hEPO mRNA, 1st value in cell), 4440 pg/mL; in the test with human PBMC (hEPO mRNA, 2nd value in cell), 3100 pg/mL; in the test on human PBMC (hEPO mRNA, 3rd value in cell), 1412.5 pg/mL. The “interferon-alpha concentration in PBMC supernatant” value in the test on human PBMC (hGCSF mRNA, 1st value in cell) was 6253.33 pg/mL; in the test with human PBMC (hGCSF mRNA, 2nd value in cell), 6725 pg/mL; with human PBMC (hGCSF mRNA, 3rd value in cell), 6280 pg/mL.

With `Nc1nc(N)c2ncn([C@@H]3O[C@H](COP(=O)(O)OP(=O)(O)OP(=O)(O)O)C(O)C3O)c2n1` (stereo partly drawn) [03601011002 (154), 2-Amino-ATP], at T7 RNA polymerase, the “EPO In Vitro Transcription yield” value amounted to 0.2612 mg, the “GCSF In Vitro Transcription yield” value stood at 0.1567 mg and the “Luc In Vitro Transcription yield” value was 0.1215 mg.

`O=c1[nH]c(=O)n(CC(F)(F)F)cc1[C@@H]1O[C@H](COP(=O)(O)OP(=O)(O)OP(=O)(O)O)C(O)C1O` (stereo partly drawn) [03601015005 (175), 1-(2,2,2-Trifluoroethyl) pseudo-UTP]: on T7 RNA polymerase, the “EPO In Vitro Transcription yield” value is reported as 0.3379 mg, the “GCSF In Vitro Transcription yield” value came to 0.2332 mg and the “Luc In Vitro Transcription yield” value came to 0.4388 mg.

With `Cn1c(N)nc2c(ncn2[C@@H]2O[C@H](COP(=O)(O)OP(=O)(O)OP(=O)(O)O)C(O)C2O)c1=O` (stereo partly drawn) [Compound 00901012008, N1-Me-GTP], on T7 RNA polymerase, the “EPO In Vitro Transcription yield” value is 0.0032 mg, the “GCSF In Vitro Transcription yield” value is recorded as 0.0050 mg and the “Luc In Vitro Transcription yield” value is reported as 0.0059 mg.

As for `Cn1c(=N)ccn([C@@H]2O[C@H](COP(=O)(O)OP(=O)(O)OP(=O)(O)O)C(O)C2O)c1=O` (stereo partly drawn) [Compound 00901014006, 3-Methyl-CTP], on T7 RNA polymerase, the “EPO In Vitro Transcription yield” value is on record as 0.0060 mg, the “GCSF In Vitro Transcription yield” value is recorded as 0.0141 mg and the “Luc In Vitro Transcription yield” value is on record as 0.0068 mg.

In the case of `Nc1ccn([C@@H]2O[C@H](COP(=O)(O)OP(=O)(O)OP(=O)(O)O)C(O)C2O)c(=S)n1` (stereo partly drawn) [Compound 00901014010, 2-Thio-CTP], on T7 RNA polymerase, the “EPO In Vitro Transcription yield” value is listed as 0.0061 mg, the “GCSF In Vitro Transcription yield” value is reported as 0.0076 mg and the “Luc In Vitro Transcription yield” value was 0.0073 mg.

With N4-acetyl-cytidine TP, ATP, GTP, UTP, in the test on BJ fibroblast cells, the “Luc mRNA RANTES” value is 2546 pg/mL, the “hEpo mRNA RANTES” value was determined as 4360 pg/mL and the “hGCSF mRNA RANTES” value worked out at 4103 pg/mL.

Consider pseudouridine TP, ATP, GTP, CTP, for which, in the test with BJ fibroblast cells, the “Luc mRNA RANTES” value was determined as 4600 pg/mL, the “hEpo mRNA RANTES” value was 5490 pg/mL and the “hGCSF mRNA RANTES” value came to 5016 pg/mL.
